Laboratory results reported in US6890727B2, “Diagnostic assay for Alzheimer's disease: assessment of Aβ abnormalities” (The General Hospital Corporation, priority 1994, dated 2005).
Like-named read-outs stand apart in the source and are kept apart here.

Columns and labels:
[1] = centrifugation studies; cited from earlier work
[2] = neutral pH; cited from earlier work
[3] = 65Zn2+ binding to immobilized peptide (dot-blot, Scatchard competition analysis)
Protocol: ^65Zn^2+ Binding Studies—Dissolved peptides (1.2 nMol, unless other wise stated) were dot-blotted onto polyvinylidene difluoride membrane (0.2-μm pore size; Pierce Chemical Co.), washed twice with chelating buffer (200 μl×100 mM NaCl, 20 mM Tris-HCl, 1 mM EDTA, pH 7.4), then five times with blocking buffer (200 μl×100 mM NaCl, 20 mM Tris-HCl, 1 mM MnCl2, pH 7.4), and then incubated (60 min, 20° C.) with ^65Zn (unless otherwise stated 130,000 cpm, […] ^65ZnCl2 in 200 μl of blocking buffer±competing metal ion chloride). The dot-blot was then washed with blocking buffer (5×200 μl), the dot excised, placed in a test tube, and assayed by γ-counting (11% efficiency). The equilibration volume for stoichiometry estimates was regarded as 6×200 μl. The 214 nm UV absorbance of the unbound flow-through was assayed to determine the total amount of peptide remaining bound onto the membrane. […] To alter the pH, the ^65Zn incubation was carried out in the presence of 100 mM buffer: MOPS (pH 6.5-7.0), MES (pH 5.0-6.0), acetate (pH 3.5-4.5). The dot-blot apparatus was washed with detergent and EDTA (50 mM) then rinsed and siliconized between use.
Aliquots of Aβ were incubated (60 min) with ^65Zn^2+ in the presence of varying concentrations of unlabeled Zn^2+ (0.01-50 μM total). Values shown are means±S.D., n≧3. […] (FIG. 1b) depicts specificity of the Zn^2+ binding site for various metals. Aβ was incubated (60 min) with ^65 Zn^2+ (157 nM, 138,000 cpm) and competing unlabeled metal ions (50 μM total). […] Percent binding of total counts ^65Zn^2+/min added is corrected for the amounts (in nanomoles) of peptides adhering to the membrane. […] 157 nM ^65Zn (138,000 cpm) is used in this experiment to probe immobilized peptide (1.6 nmol).

[4] = Aβ incubation with column components, UV absorption before and after; format: physicochemical
Protocol: To determine the part of the column onto which Aβ was precipitating, Aβ solutions were incubated with various column components and assayed by UV absorption before and after incubation. Replicating the chromatography experimental conditions, Aβ (100 μM in equilibration buffer) was incubated for 1 h in plastic reaction vessels with or without the presence of Sephadex.

[5] = Aβ binding to kaolin (aluminum silicate); format: physicochemical
Protocol: Aβ Binding to Kaolin (Aluminum Silicate)—Kaolin suspension was prepared in high performance liquid chromatography water (Fisher), defined, and adjusted to 50% (v/v). Aβ (40 μg) was incubated in siliconized reaction vessels with either kaolin or Sephadex G50 SF (10 μl×50% (v/v)) in Cu^2+, Zn^2+, or EDTA (100 μl in TBS, 5 min, room temperature). The suspension was then pelleted (1500×g, 3 min) and the supernatant removed and diluted 20-fold with water to bring the UV absorbance readings into the linear range. Samples were assayed at 214 nm before and after incubation with kaolin or Sephadex.
(FIG. 3a) depicts concentration (by 214 nm absorbance) of Aβ remaining in supernatant after incubation with 10 mg of G50 Sephadex. (FIG. 3b) depicts concentration (by 214 nm absorbance) of Aβ remaining in supernatant after incubation with 10 mg of kaolin, expressed as percent of the starting absorbance.

trypsin = experiment: Tryptic digestion of Aβ after incubation with Zn2+; format: biochemical; conditions: increasing zinc concentrations
Protocol: Tryptic Digestion of Aβ-Aβ1-40 (13.9 μg) was incubated with Zn^2+ ([…] in blocking buffer, 1 h, 37° C.) and then digested with trypsin (12 ng, 3 h, 37° C.). The reaction was stopped by adding SDS sample buffer containing phenylmethylsulfonyl fluoride (1 mM), boiling the samples (5 min), and applying the samples to Tris/Tricine gel electrophoresis and transfer. The blot was washed with EDTA, Coomassie-stained, incubated with ^65Zn^2+, individual bands were excised, assayed for ^65Zn^2+ binding, and N-terminal sequenced to confirm the identity of the digestion products. The effects of Zn^2+ (up to 100 μM in TBS) on the activity of trypsin, itself, were assayed by assay of Z-Arg-amido-4-methylcoumarin (Sigma) fluorescent cleavage product and determined to be negligible.
(FIG. 4a) depicts a blot of tryptic digests of Aβ (13.9 μg) after incubation with increasing concentrations of zinc (lane labels, in micromolar), stained by Coomassie Blue. […] The migration of the low molecular size markers (STD) are indicated (in kilodaltons) on the right. (FIG. 4b) depicts ^65Zn^2+ binding to Aβ tryptic digestion products. The blot in 4a was incubated with ^65Zn^2+, the visible bands excised, and the bound counts for each band determined.

[6] = Zinc-induced tinctorial amyloid formation (Congo Red, polarized light); format: physicochemical
Protocol: FIGS. 8a and 8b are photographs showing zinc-induced tinctorial amyloid formation. […] The particle diameter is 40μ. […] The experiment was repeated with EDTA (50 μM) substituted for Zn^2+ and yielded no visible material.
The particle diameter is 40μ. […] The experiment was repeated with EDTA (50 μM) substituted for Zn^2+ and yielded no visible material.

[7] = not given; remark: listed apart in the source
[8] = 65Zn2+ binding to immobilized peptide (dot-blot, Scatchard competition analysis); conditions: 1 min
[9] = 20 μM in PBS, cited from earlier work

## ^125I-human Aβ1-40: human Aβ1-40 iodinated on the tyrosine residue at position 10, tracer
[1]
  Zn^2+ concentration required to precipitate: 1 mM

## insulin: insulin, literature comparison for zinc binding
[2]
  stoichiometric ratio Zn^2+:insulin in excess of which the peptide precipitates: > 0.33

## Aβ1-40: synthetic peptide representing secreted human Aβ1-40, 4.3 kDa, main component of Alzheimer cerebral amyloid
[3]
  time at which ^65Zn^2+ binding plateaued: 1 h
[3]; pH 6.0
  ^65Zn^2+ binding at lower pH: 30 % of Bmax
[4]; Aβ 100 μM, 1 h
  binding to Sephadex: < 1%
  loss to siliconized plastic: < 1%
[4]; without zinc
  adsorption in borosilicate glass test tubes: 20%
[4]; zinc 25 μM
  adsorption in borosilicate glass test tubes: 35%
[5]; 10 mM EDTA
  reversibility of binding to kaolin: not reversible
[5]; Aβ 0.4 mg/ml, kaolin 5% v/v, 5 min, room temperature
  precipitation of the peptide by kaolin: up to 87%
trypsin
  effect of zinc on rate of tryptic digestion of the peptide: is inhibited by the presence of zinc
[6]; Congo Red
  Zn^2+ concentration inducing amyloid by tinctorial criteria: 3 µM
[6]; peptide 25 μM, Zn^2+ 25 μM, 30 minutes, 37° C.
  particle diameter of zinc-induced precipitate: 40 μ
EDTA
  >0.2μ particle assembly following incubation with EDTA: 10-20%
EDTA buffer, peptide 1.6 μM
  near-instantaneous aggregation into >0.2μ particles: 20%
EDTA, higher peptide concentrations
  peptide aggregated into >0.2μ particles: ≈ 15%
EDTA, peptide 0.8 μM
  peptide aggregated into >0.2μ particles: no detectable aggregation
Zn^2+ 25 μM, 30 minutes, various peptide concentrations
  peptide aggregated into >0.2μ particles: up to 80%
Zn^2+ 25 μM, peptide 0.8 μM
  peptide aggregated into >0.2μ particles: > 70%
Zn^2+ 25 μM, peptide 1.6 μM
  particle assembly rate of second phase: 3.2 nM/min
  time to steady state of the second phase: ≤ 2 min
Zn^2+ 25 μM, peptide 1.6 μM, pH 7.4
  half-maximal assembly rate of initial phase: ≈ 0.4 μM/min
At second-phase rate
  time until available peptide is exhausted: within five hours
Curve of FIG. 6A extrapolated to 0.6 nM peptide, Zn^2+ 25 μM
  peptide that would aggregate into >0.2μ particles, extrapolated: 25%
[7]; >0.65 aggregates, EDTA 50 μM
  peptide recovered when retained aggregates are washed with EDTA: 22%
[7]; EDTA, peptide 1.6 μM
  proportion of particles >0.1μ: 47%
  proportion of particles >0.22μ: 40%
  proportion of particles >0.65μ: 32%
[7]; Zn^2+ 25 μM vs EDTA
  increase of proportion of >0.1μ particles following incubation with Zn^2+: 50%
  increase of proportion of >0.22μ particles following incubation with Zn^2+: 55%
[7]; Zn^2+ 25 μM, peptide 1.6 μM
  proportion of particles >0.65μ: 82%
[7]; compared with >0.65 aggregates
  additional ≦0.22μ peptide resolubilized by EDTA treatment: 7%
[8]
  ^65Zn^2+ binding at 1 min: 60 % Bmax
[9]; pH 7.4
  time stable in solution: 10 days
[9]; seeded with Aβ1-42 (2 μM)
  time to half-maximal aggregation: 4 to 5 days
